A short description of the data set: Acid or hold stability of sample compositions held at 85° C. for 24 hours. The format is physicochemical. Conditions: heated liquid held at 85° C., 24 hour period; 3.00% pantothenic acid derivative with 25.25% aluminum zirconium trichlorohydrate. As for the experimental part:
The topical leave-on compositions of the present invention are evaluated to determine the relative acid or hold stability of selected pantothenic acid derivatives as defined herein (e.g., ethyl panthenol, panthenyl triacetate) relative to other pantothenic acid derivatives (e.g., panthenol, calcium pantothenate). In this context, acid or hold stability is found to correlate with the lack of visibly apparent crystal formation within or extending from the sample product or by the lack of any significant off-odor development, over a 24 hours period at an elevated hold temperature of 85° C.
Each sample composition is formulated with the above-described ingredients and then held at 85° C. as a heated liquid for a 24 hour period and evaluated during that that period of time for any visibly apparent crystal formations within or extending from the formulation, and for any off-odor development. The evaluated product is maintained in the heated liquid state at 85° C. during the evaluation period to assimilate the elevated processing or hold temperatures often associated with the making of such antiperspirant and deodorant products, and to assimilate those conditions that favor acid-degradation of pantothenic acid derivatives as described herein.

Structures are written as SMILES.

As to `CCOCCCNC(=O)[C@H](O)C(C)(C)CO` [ethyl panthenol], the Off-odor formation entry is on record as “little or no off-odor development” and the Visible crystal formation result is “do not exhibit the undesirable crystal formation”.
The corresponding values for `CC(=O)OCCCNC(=O)[C@H](OC(C)=O)C(C)(C)COC(C)=O` [panthenyl triacetate] are “little or no off-odor development” and “do not exhibit the undesirable crystal formation”.
